Reference: ChEMBL document CHEMBL1201862, “PubChem BioAssay data set” (2004)
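The compound was tested at five concentrations on cells cultured in 96-well plates, with a 48-hour exposure period. At the GI50, growth is halved.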 Active and inactive are the calls of the source. Rule as the data show it: active = GI50 up to about 1.1 µM and inactive = higher.

Key:
Assay in all cases: growth of human tumour cells (NCI), 48 h
ACHN = system: ACHN
CAKI-1 = system: CAKI-1
HCT-15 = system: HCT-15
HL-60 = system: HL-60
HOP-92 = system: HOP-92
Hs-578T = system: Hs-578T
M14 = system: M14
MOLT-4 = system: MOLT-4
NCI-H23 = system: NCI-H23
NCI-H460 = system: NCI-H460
NCI-H522 = system: NCI-H522
NCI/ADR-RES = system: NCI/ADR-RES
OVCAR-4 = system: OVCAR-4
OVCAR-8 = system: OVCAR-8
PC-3 = system: PC-3
SF-268 = system: SF-268
SF-295 = system: SF-295
SNB-19 = system: SNB-19
SNB-75 = system: SNB-75
T47D = system: T47D

SMILES	GI50 (ACHN)	GI50 (CAKI-1)	GI50 (HCT-15) [µM]	GI50 (HL-60)	GI50 (HOP-92)	GI50 (Hs-578T)	GI50 (M14)	GI50 (MOLT-4)	GI50 (NCI-H23)	GI50 (NCI-H460)	GI50 (NCI-H522)	GI50 (NCI/ADR-RES)	GI50 (OVCAR-4)	GI50 (OVCAR-8)	GI50 (PC-3)	GI50 (SF-268)	GI50 (SF-295)	GI50 (SNB-19)	GI50 (SNB-75)	GI50 (T47D)
COc1ccc(NC(=S)N/N=C2\C(=O)Nc3ccccc32)cc1	6.5 µM (inactive)	5.11 µM (inactive)	0.984	2.49 µM (inactive)	44 µM (inactive)	29.2 µM (inactive)	21.9 µM (inactive)	4.93 µM (inactive)	14.7 µM (inactive)	3.13 µM (inactive)	18.7 µM (inactive)	2.07 µM (inactive)	9.77 µM (inactive)	7.55 µM (inactive)	19.2 µM (inactive)	17.5 µM (inactive)	3.47 µM (inactive)	41.7 µM (inactive)	48 µM (inactive)	7.98 µM (inactive)
c1ccc(/N=C2\c3ccsc3/C(=N/c3ccccc3)c3ccsc32)cc1	1.71 µM (inactive)	4.49 µM (inactive)	2.04	1.61 µM (inactive)	2.61 µM (inactive)	2.24 µM (inactive)	1.34 µM (inactive)	1.9 µM (inactive)	0.914 µM (active)	2.01 µM (inactive)	1.98 µM (inactive)	1.98 µM (inactive)	1.77 µM (inactive)	2.11 µM (inactive)	2.16 µM (inactive)	2.4 µM (inactive)	1.7 µM (inactive)	1.98 µM (inactive)	1.2 µM (inactive)	1.52 µM (inactive)
Cn1c2ccccc2c(=NNc2ccc(S(N)(=O)=O)cc2)c2ccccc21	8.05 µM (inactive)	15.7 µM (inactive)	16.2	2.7 µM (inactive)	8.85 µM (inactive)	32.7 µM (inactive)	24 µM (inactive)	3.95 µM (inactive)	16 µM (inactive)	9.18 µM (inactive)	11.2 µM (inactive)	14.1 µM (inactive)	14.3 µM (inactive)	16.2 µM (inactive)	9.75 µM (inactive)	18.1 µM (inactive)	13.6 µM (inactive)	27.6 µM (inactive)	15.1 µM (inactive)	5.45 µM (inactive)
c1ccc2c(c1)[C@@H]1O[C@@H]1[C@@]13O[C@@]21[C@H]1O[C@H]1c1ccccc13	12.9 µM (inactive)	10.8 µM (inactive)	19.5	13.3 µM (inactive)	9.89 µM (inactive)	13 µM (inactive)	15.6 µM (inactive)	10.6 µM (inactive)	14 µM (inactive)	14.7 µM (inactive)	10.8 µM (inactive)	16.3 µM (inactive)	11.9 µM (inactive)	15.6 µM (inactive)	13.1 µM (inactive)	13.7 µM (inactive)	15.1 µM (inactive)	16.1 µM (inactive)	12.9 µM (inactive)	17.8 µM (inactive)
FC(F)(F)c1nc2nc(Cl)c(Cl)nc2n1CCCN1CCOCC1	> 100 µM (inactive)	3.71 µM (inactive)	29	19.1 µM (inactive)	32 µM (inactive)	33.7 µM (inactive)	48.2 µM (inactive)	13 µM (inactive)	34.7 µM (inactive)	52 µM (inactive)	29.4 µM (inactive)	> 100 µM (inactive)	55.5 µM (inactive)	29.3 µM (inactive)	61.2 µM (inactive)	40.4 µM (inactive)	> 100 µM (inactive)	51.4 µM (inactive)	79.3 µM (inactive)	47 µM (inactive)
CC1=NN(c2ccccc2)C(=O)C1/N=N/c1ccc(S(N)(=O)=O)cc1 (stereo not given)	> 100 µM (inactive)	> 100 µM (inactive)	> 100	> 100 µM (inactive)	> 100 µM (inactive)	> 100 µM (inactive)	> 100 µM (inactive)	> 100 µM (inactive)	> 100 µM (inactive)	> 100 µM (inactive)	> 100 µM (inactive)	> 100 µM (inactive)	> 100 µM (inactive)	> 100 µM (inactive)	> 100 µM (inactive)	> 100 µM (inactive)	> 100 µM (inactive)	> 100 µM (inactive)	> 100 µM (inactive)	> 100 µM (inactive)
